According to patent US12077503B2, “Substituted cyclic amides and their use as herbicides” (FMC CORPORATION, priority 2015, dated 2024):

Assays:
Type in all cases: in vivo
[1] = tested on: ryegrass, Italian (Italian ryegrass, Lolium multiflorum); assay: Test A preemergence
From the text: (§1) Seeds of plant species selected from barnyardgrass (Echinochloa crus-galli), Kochia (Kochia scoparia), ragweed (common ragweed, Ambrosia elatior), ryegrass, Italian (Italian ryegrass, Lolium multiflorum), crabgrass, large (Digitaria sanguinalis), giant foxtail (Setaria faberii), green foxtail (Setaria viridis), morningglory (Ipomoea spp.), pigweed (Amaranthus retroflexus), velvetleaf (Abutilon theophrasti), wheat (Triticum aestivum), and corn (Zea mays) were planted into a blend of loam soil and sand and treated preemergence with a directed soil spray using test chemicals formulated in anon-phytotoxic solvent mixture which included a surfactant.
(§2) At the same time, plants selected from these crop and weed species and also blackgrass (Alopecurus myosuroides), and Galium (catchweed bedstraw, Galium aparine) were planted in pots containing the same blend of loam soil and sand and treated with postemergence applications of test chemicals formulated in the same manner. Plants ranged in height from 2 to 10 cm and were in the one- to two-leaf stage for the postemergence treatment. Treated plants and untreated controls were maintained in a greenhouse for approximately 10 d, after which time all treated plants were compared to untreated controls and visually evaluated for injury. Plant response ratings, summarized in Table A, are based on a 0 to 100 scale where 0 is no effect and 100 is complete control. A dash (-) response means no test result.

Kochia (Kochia scoparia) [2] = assay: Test A preemergence
From the text: as §1, §2

[3] = tested on: giant foxtail (Setaria faberii); assay: Test A preemergence
From the text: as §1, §2

[4] = tested on: barnyardgrass (Echinochloa crus-galli); assay: Test A preemergence
From the text: as §1, §2

[5] = tested on: pigweed (Amaranthus retroflexus); assay: Test A preemergence
From the text: as §1, §2

[6] = tested on: ragweed (common ragweed, Ambrosia elatior); assay: Test A preemergence
From the text: as §1, §2

[7] = tested on: ryegrass, Italian (Italian ryegrass, Lolium multiflorum); assay: Test A postemergence
From the text: as §1, §2

Kochia (Kochia scoparia) [8] = assay: Test A postemergence
From the text: as §1, §2

[9] = tested on: blackgrass (Alopecurus myosuroides); assay: Test A postemergence
From the text: as §1, §2

corn (Zea mays) = assay: Test A postemergence
From the text: as §1, §2

[10] = tested on: giant foxtail (Setaria faberii); assay: Test A postemergence
From the text: as §1, §2

[11] = tested on: barnyardgrass (Echinochloa crus-galli); assay: Test A postemergence
From the text: as §1, §2

[12] = tested on: pigweed (Amaranthus retroflexus); assay: Test A postemergence
From the text: as §1, §2

[13] = tested on: ragweed (common ragweed, Ambrosia elatior); assay: Test A postemergence
From the text: as §1, §2

[14] = tested on: wheat (Triticum aestivum); assay: Test A postemergence
From the text: as §1, §2

[15] = tested on: Galium (catchweed bedstraw, Galium aparine); assay: Test A postemergence
From the text: as §1, §2

[16] = 125 g ai/ha, Preemergence, visual injury after approximately 10 d, 0 to 100 scale where 0 is no effect and 100 is complete control
[17] = Preemergence, 500 g ai/ha, visual injury approx. 10 d
[18] = 125 g ai/ha, postemergence, visual rating after approx. 10 d, 0 to 100 scale (0 no effect, 100 complete control)
[19] = Postemergence, 500 g ai/ha, 0 to 100 scale where 0 is no effect and 100 is complete control

Cc1cc(F)ccc1NC(=O)C1C(=O)N(C)CC1c1cccc(C(F)(F)F)c1 (stereo not drawn) [Compound 575]
Plant response rating, Ryegrass, Italian [1, 16]: 60
Ryegrass, Italian plant response rating (0 to 100 scale, 0 is no effect, 100 is complete control) [1, 17]: 80
Plant response rating, Kochia (Kochia (Kochia scoparia) [2]; [16]): 0
Kochia plant response rating (0 to 100 scale, 0 is no effect, 100 is complete control) (Kochia (Kochia scoparia) [2]; [17]): 70
Plant response rating, Foxtail, Giant [3, 16]: 90
Foxtail, Giant plant response rating (0 to 100 scale, 0 is no effect, 100 is complete control) [3, 17]: 100
Plant response rating, Barnyardgrass [4, 16]: 90
Barnyardgrass plant response rating (0 to 100 scale, 0 is no effect, 100 is complete control) [4, 17]: 100
Plant response rating, Pigweed [5, 16]: 0
Pigweed plant response rating (0 to 100 scale, 0 is no effect, 100 is complete control) [5, 17]: 40
Plant response rating, Ragweed [6, 16]: 0
Ragweed plant response rating (0 to 100 scale, 0 is no effect, 100 is complete control) [6, 17]: 0
Plant response rating, Ryegrass, Italian [7, 18]: 60
Plant response rating, Ryegrass, Italian [7, 19]: 70
Plant response rating, Kochia (Kochia (Kochia scoparia) [8]; [18]): 0
Plant response rating, Kochia (Kochia (Kochia scoparia) [8]; [19]): 20
Plant response rating, Blackgrass [9, 18]: 70
Plant response rating, Blackgrass [9, 19]: 80
Plant response rating, Corn (corn (Zea mays); [18]): 70
Plant response rating, Corn (corn (Zea mays); [19]): 80
Plant response rating, Foxtail, Giant [10, 18]: 90
Plant response rating, Foxtail, Giant [10, 19]: 90
Plant response rating, Barnyardgrass [11, 18]: 90
Plant response rating, Barnyardgrass [11, 19]: 90
Plant response rating, Pigweed [12, 18]: 0
Plant response rating, Pigweed [12, 19]: 20
Plant response rating, Ragweed [13, 18]: 0
Plant response rating, Ragweed [13, 19]: 0
Plant response rating, Wheat [14, 18]: 40
Plant response rating, Wheat [14, 19]: 70
Plant response rating, Galium [15, 18]: 50
Plant response rating, Galium [15, 19]: 70

O=C1NC[C@H](c2ccc3sccc3c2)[C@H]1C(=O)Nc1cccc(F)c1F [Compound 1128]
pest or weed control at 500 g/ha ([1]; Lolium multiflorum, pre-emergence, 240 h, 500 g ai/ha, preemergence, 0 to 100 scale where 0 is no effect and 100 is complete control, read-out: Ryegrass, Italian plant response rating): 40%
pest or weed control at 500 g/ha (Kochia (Kochia scoparia) [2]; Bassia scoparia, pre-emergence, 240 h, 500 g ai/ha, preemergence, 0 to 100 scale where 0 is no effect and 100 is complete control, read-out: Kochia plant response rating): 80%
pest or weed control at 500 g/ha ([3]; Setaria faberi, pre-emergence, 240 h, 500 g ai/ha, preemergence, 0 to 100 scale where 0 is no effect and 100 is complete control, read-out: Foxtail, Giant plant response rating): 90%
pest or weed control at 500 g/ha ([4]; Echinochloa crus-galli, pre-emergence, 240 h, 500 g ai/ha, preemergence, 0 to 100 scale where 0 is no effect and 100 is complete control, read-out: Barnyardgrass plant response rating): 90%
pest or weed control at 500 g/ha ([5]; Amaranthus retroflexus, pre-emergence, 240 h, 500 g ai/ha, preemergence, 0 to 100 scale where 0 is no effect and 100 is complete control, read-out: Pigweed plant response rating): 0%
pest or weed control at 500 g/ha ([6]; Ambrosia artemisiifolia, pre-emergence, 240 h, 500 g ai/ha, preemergence, 0 to 100 scale where 0 is no effect and 100 is complete control, read-out: Ragweed plant response rating): 50%
pest or weed control at 500 g/ha ([7]; Lolium multiflorum, post-emergence, 240 h, 500 g ai/ha, postemergence, 0 to 100 scale, 0 is no effect, 100 is complete control, read-out: Ryegrass, Italian plant response rating): 30%
pest or weed control at 500 g/ha (Kochia (Kochia scoparia) [8]; Bassia scoparia, post-emergence, 240 h, 500 g ai/ha, postemergence, 0 to 100 scale, 0 is no effect, 100 is complete control, read-out: Kochia plant response rating): 70%
pest or weed control at 500 g/ha ([9]; Alopecurus myosuroides, post-emergence, 240 h, 500 g ai/ha, postemergence, 0 to 100 scale, 0 is no effect, 100 is complete control, read-out: Blackgrass plant response rating): 50%
plant injury at 500 g/ha (corn (Zea mays); Zea mays, post-emergence, 240 h, 500 g ai/ha, postemergence, 0 to 100 scale, 0 is no effect, 100 is complete control, read-out: Corn plant response rating): 50%
pest or weed control at 500 g/ha ([10]; Setaria faberi, post-emergence, 240 h, 500 g ai/ha, postemergence, 0 to 100 scale, 0 is no effect, 100 is complete control, read-out: Foxtail, Giant plant response rating): 90%
pest or weed control at 500 g/ha ([11]; Echinochloa crus-galli, post-emergence, 240 h, 500 g ai/ha, postemergence, 0 to 100 scale, 0 is no effect, 100 is complete control, read-out: Barnyardgrass plant response rating): 90%
pest or weed control at 500 g/ha ([12]; Amaranthus retroflexus, post-emergence, 240 h, 500 g ai/ha, postemergence, 0 to 100 scale, 0 is no effect, 100 is complete control, read-out: Pigweed plant response rating): 0%
pest or weed control at 500 g/ha ([13]; Ambrosia artemisiifolia, post-emergence, 240 h, 500 g ai/ha, postemergence, 0 to 100 scale, 0 is no effect, 100 is complete control, read-out: Ragweed plant response rating): 50%
plant injury at 500 g/ha ([14]; Triticum aestivum, post-emergence, 240 h, 500 g ai/ha, postemergence, 0 to 100 scale, 0 is no effect, 100 is complete control, read-out: Wheat plant response rating): 0%
pest or weed control at 500 g/ha ([15]; Galium, post-emergence, 240 h, 500 g ai/ha, postemergence, 0 to 100 scale, 0 is no effect, 100 is complete control, read-out: Galium plant response rating): 70%
